{"source": "patent US8470867B2", "about": "“Sigma receptor inhibitors” (Laboratorios Del Dr. Esteve, S.A., priority 2004, dated 2013)", "note": "Counter-ions that a name gives are not always drawn."}
{"target": "T1, σ1-receptor (Cavia porcellus, UniProt Q60492)", "T1 construct": "guinea pig brains were homogenized; from tissue; host or cells: guinea pig brain membranes", "T1 sequence (Q60492 whole entry)": "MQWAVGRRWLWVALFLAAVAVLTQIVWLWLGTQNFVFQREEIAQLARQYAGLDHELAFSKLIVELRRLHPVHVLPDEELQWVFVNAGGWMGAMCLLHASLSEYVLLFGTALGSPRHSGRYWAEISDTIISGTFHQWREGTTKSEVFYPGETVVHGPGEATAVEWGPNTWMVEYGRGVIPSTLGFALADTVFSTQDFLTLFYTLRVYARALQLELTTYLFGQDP", "assay": "Sigma-1 receptor binding, [3H](+)-pentazocine, brain membranes", "parameters": "species or system guinea pig", "conditions": "not given", "description": "(§1) Brain membrane preparation and binding assays for the σ1-receptor were performed as described (DeHaven-Hudkins et al., 1992) with some modifications. In brief, guinea pig brains were homogenized in 10 vols. (w/v) of Tris-HCl 50 mM 0.32 M sucrose, pH 7.4, with a Kinematica Polytron PT 3000 at 15000 r.p.m. for 30 s. The homogenate was centrifuged at 1000 g for […] at 4° C. and the supernatants collected and centrifuged again at 48000 g for 15 min at 4° C. The pellet was resuspended in 10 volumes of Tris-HCl buffer (50 mM, pH 7.4), incubated at 37° C. for 30 min, and centrifuged at 48000 g for 20 min at 4° C. Following this, the pellet was resuspended in fresh Tris-HCl buffer (50 mM, pH 7.4) and stored on ice until use.\n(§2) Each assay tube contained 10 μL of [^3H](+)-pentazocine (final concentration of 0.5 nM), 900 μL of the tissue suspension to a final assay volume of 1 mL and a final tissue concentration of approximately 30 mg tissue net weight/mL. […] All tubes were incubated at 37° C. for 150 min before termination of the reaction by rapid filtration over Schleicher & Schuell GF 3362 glass fibre filters [previously soaked in a solution of 0.5% polyethylenimine for at least 1 h]. Filters were then washed with four times with 4 mL of cold Tris-HCl buffer (50 mM, pH 7.4). Following addition of scintillation cocktail, the samples were allowed to equilibrate overnight. The amount of bound radioactivity was determined by liquid scintillation spectrometry using a Wallac Winspectral 1414 liquid scintillation counter. Protein concentrations were determined by the method of Lowry et al. (1951).", "units": {"Ki": "nM"}}
{"smiles": "Cc1cc(OCCCCN2CCCC2)nn1-c1ccc(Cl)c(Cl)c1", "note": "[Example 23, 1-(3,4-Dichlorophenyl)-5-methyl-3-[4-(pyrrolidin-1-yl)butoxy]-1H-pyrazole]", "Ki": 4.4}
{"smiles": "CCN(CC)CCCCOc1cc(C)n(-c2ccc(Cl)c(Cl)c2)n1", "note": "[Example 27, 4-[1-(3,4-Dichlorophenyl)-5-methyl-1H-pyrazol-3-yloxy]-N,N-diethylbutan-1-amine]", "Ki": 4.1}
{"smiles": "CC(C)c1cc(OCCN2CCCCC2)nn1-c1ccc(Cl)c(Cl)c1", "note": "[Example 35, 1-{2-[1-(3,4-Dichlorophenyl)-5-isopropyl-4H-pyrazol-3-yloxy]ethyl}piperidine]", "Ki": 8.6}
{"target": "T1, σ1-receptor", "assay": "Sigma-1 receptor binding, [3H](+)-pentazocine, brain membranes", "parameters": "species or system guinea pig", "conditions": "10^−7 M", "description": "as §1, §2", "units": {"inhibition at 0.1 µM": "%", "% Binding σ1": "%"}}
{"smiles": "CCN(CC)CCOc1cc(C)n(-c2ccc(Cl)c(Cl)c2)n1", "note": "[Example 2, 2-[1-(3,4-Dichlorophenyl)-5-methyl-1H-pyrazol-3-yloxy]-N,N-diethylethanamine hydrochloride]", "inhibition at 0.1 µM": 95.1}
{"smiles": "Cc1cc(OCCN2CCN(C)CC2)nn1-c1ccc(Cl)c(Cl)c1", "note": "[Example 8, 1-{2-[1-(3,4-Dichlorophenyl)-5-methyl-1H-pyrazol-3-yloxy]ethyl}-4-methylpiperazine]", "inhibition at 0.1 µM": 94.5}
{"smiles": "CCOC(=O)N1CCN(CCOc2cc(C)n(-c3ccc(Cl)c(Cl)c3)n2)CC1", "note": "[Example 9, Ethyl 4-{2-[1-(3,4-dichlorophenyl)-5-methyl-1H-pyrazol-3-yloxy]ethyl}piperazine carboxylate]", "inhibition at 0.1 µM": 99.5}
{"smiles": "COc1ccc(-n2nc(OCCCN3CCCC3)cc2C)cc1", "note": "[Example 13, 1-(4-Methoxyphenyl)-5-methyl-3-[3-(pyrrolidin-1-yl)propoxy]-1H-pyrazole]", "inhibition at 0.1 µM": 50.9}
{"smiles": "COc1ccc(-n2nc(OCCN3CCCCC3)cc2C)cc1", "note": "[Example 14, 1-[2-(1-(4-Methoxyphenyl)-5-methyl-1H-pyrazol-3-yloxy)ethyl]piperidine]", "inhibition at 0.1 µM": 48.9}
{"smiles": "Clc1ccc(-n2nc(OCCCN3CCCC3)cc2-c2ccccc2)cc1Cl", "note": "[Example 18, 1-(3,4-Dichlorophenyl)-5-phenyl-3-[3-(pyrrolidin-1-yl)propoxy]-1H-pyrazole]", "inhibition at 0.1 µM": 58.6}
{"smiles": "Clc1ccc(-n2nc(OCCN3CCCCC3)cc2-c2ccccc2)cc1Cl", "note": "[Example 19, 1-{2-[1-(3,4-Dichlorophenyl)-5-phenyl-1H-pyrazol-3-yloxy]ethyl}piperidine]", "inhibition at 0.1 µM": 80.1}
{"smiles": "Cc1cc(OCCCCN2CCCC2)nn1-c1ccc(Cl)c(Cl)c1", "note": "[Example 23, 1-(3,4-Dichlorophenyl)-5-methyl-3-[4-(pyrrolidin-1-yl)butoxy]-1H-pyrazole]", "inhibition at 0.1 µM": 96.4}
{"smiles": "CCN(CC)CCCCOc1cc(C)n(-c2ccc(Cl)c(Cl)c2)n1", "note": "[Example 27, 4-[1-(3,4-Dichlorophenyl)-5-methyl-1H-pyrazol-3-yloxy]-N,N-diethylbutan-1-amine]", "inhibition at 0.1 µM": 99.2}
{"smiles": "Cc1cc(OCCCCN2CCc3ccccc3C2)nn1-c1ccc(Cl)c(Cl)c1", "note": "[Example 30, 2-{4-[1-(3,4-dichlorophenyl)-5-methyl-1H-pyrazol-3-yloxy]butyl}-1,2,3,4-tetrahydroisoquinoline]", "inhibition at 0.1 µM": 83}
{"smiles": "CCN(CC)CCOc1cc(C(C)C)n(-c2ccc(Cl)c(Cl)c2)n1", "note": "[Example 32, 2-[1-(3,4-Dichlorophenyl)-5-isopropyl-1H-pyrazol-3-yloxy]-N,N-diethylethanamine]", "inhibition at 0.1 µM": 72.7}
{"smiles": "CC(C)c1cc(OCCN2CCCCC2)nn1-c1ccc(Cl)c(Cl)c1", "note": "[Example 35, 1-{2-[1-(3,4-Dichlorophenyl)-5-isopropyl-4H-pyrazol-3-yloxy]ethyl}piperidine]", "inhibition at 0.1 µM": 102}
{"smiles": "Clc1ccc(-n2ccc(OCCN3CCOCC3)n2)cc1Cl", "note": "[Example 37, 4-{2-[1-(3,4-dichlorophenyl)-1H-pyrazol-3-yloxy]ethyl}morpholine]", "inhibition at 0.1 µM": 108}
{"smiles": "CCN(CC)CCOc1ccn(-c2ccc(Cl)c(Cl)c2)n1", "note": "[Example 38, 2-[1-(3,4-dichlorophenyl)-1H-pyrazol-3-yloxy]N,N-diethylethanamine]", "inhibition at 0.1 µM": 108}
{"smiles": "Clc1ccc(-n2ccc(OCCN3CCCC3)n2)cc1Cl", "note": "[Example 39, 1-(3,4-dichlorophenyl)-3-[2-(pyrrolidin-1-yl)ethoxy]-1H-pyrazole]", "inhibition at 0.1 µM": 110}
{"smiles": "Clc1ccc(-n2ccc(OCCN3CCCCC3)n2)cc1Cl", "note": "[Example 40, 1-{2-[1-(3,4-dichlorophenyl)-1H-pyrazol-3-yloxy]ethyl}piperidine]", "inhibition at 0.1 µM": 110}
{"smiles": "Cc1cc(OCCN2CCOCC2)nn1-c1ccc2ccccc2c1", "note": "[Example 61, 4-{2-[5-Methyl-1-(naphthalen-2-yl)-1H-pyrazol-3-yloxy]ethyl}morpholine]", "% Binding σ1": 93.6}
